Measurements: patent publication US8148056B2, “Methods of identifying modulators of GPR81 receptors” (Janssen Pharmaceutica NV, priority 2006, dated 2012)
Values joined by “and” are separate entries in the source; they are usually repeats but may differ in a detail not shown here. Identical values can stand only once. “Also recorded” adds a separate entry of the source. Counter-ions that a name gives are not always drawn. Like-named read-outs stand apart in the source and are kept apart here.

Experiments:
GPR81 [1] = target: T1, GPR81 (Homo sapiens, UniProt Q9BXC0); assay: GPR81 agonist ligand activity, GTPγS binding assay (species of receptor not given); format: biochemical; parameters: expressed in transfected cells; host or cells: GPR81-expressing cells / membranes (CHO); settings: for GPR81 agonist activity: yes/no; for stimulation of 35S-GTPγS binding in GPR81-expressing cells / cell membranes: concentration not given
Target sequence in this assay (Q9BXC0 whole entry, species assumed): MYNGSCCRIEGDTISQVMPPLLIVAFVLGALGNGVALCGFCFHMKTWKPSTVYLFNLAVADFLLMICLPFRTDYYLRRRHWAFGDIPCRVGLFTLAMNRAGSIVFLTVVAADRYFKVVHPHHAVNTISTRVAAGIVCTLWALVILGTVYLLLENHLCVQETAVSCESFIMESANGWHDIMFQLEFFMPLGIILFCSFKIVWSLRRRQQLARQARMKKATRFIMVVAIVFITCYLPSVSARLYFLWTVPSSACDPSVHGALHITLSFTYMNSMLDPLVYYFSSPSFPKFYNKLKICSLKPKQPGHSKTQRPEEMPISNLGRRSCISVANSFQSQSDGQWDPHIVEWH

HM74A = target: T2, HM74A (Homo sapiens, UniProt Q8TDS4); assay: 35S-GTPγS binding assay, HM74A-expressing CHO membranes; format: biochemical
T2 construct: expressed in transfected cells; host or cells: CHO cells, membranes
T2 sequence (Q8TDS4 whole entry): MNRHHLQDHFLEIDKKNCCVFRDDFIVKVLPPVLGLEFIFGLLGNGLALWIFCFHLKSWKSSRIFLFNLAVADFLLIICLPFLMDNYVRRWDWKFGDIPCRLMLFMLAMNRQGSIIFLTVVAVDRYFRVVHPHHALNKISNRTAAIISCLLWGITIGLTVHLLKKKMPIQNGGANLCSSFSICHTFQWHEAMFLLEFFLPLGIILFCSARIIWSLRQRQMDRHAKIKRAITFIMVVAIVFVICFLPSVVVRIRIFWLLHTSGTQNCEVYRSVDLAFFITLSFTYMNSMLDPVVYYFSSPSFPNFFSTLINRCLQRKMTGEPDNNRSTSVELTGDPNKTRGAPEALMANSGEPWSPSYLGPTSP

[2] = cAMP inhibition-linked β-gal assay, control cells; format: cell-based
GPR81 [3] = target: T1, GPR81; settings: 5 μM forskolin
Description: A β-galactosidase (β-gal) assay system was also used to characterize the GPR81 activation in SK-N-MC/CRE-β-gal cells stably expressing human GPR81. GPCRs that couple with Gi proteins, upon activation by agonist, inhibit cAMP accumulation, and therefore inhibit forkolin-stimulated β-gal expression. A cell line stably expressing human GPR81 was established from an SK-N-MC/CRE-β-gal cell line, which harbors a β-galactosidase β-gal) gene under the control of a cAMP-responsive element (CRE). SK-N-MC/CRE-β-gal cells were transfected with the above-described human GPR81-pCIneo construct using LipofectAmine as the transfection reagent. Two days after transfection, the cells were split into new culture dishes at different densities and grown under selection of G418 for three weeks. Single isolated clones were isolated and tested for responsiveness to L-lactate stimulation. […] The β-gal activity was assayed as described (Liu et al., Mol. Pharmacol., Vol. 67, pp. 231-240 (2005)).
Target sequence in this assay (Q9BXC0 whole entry): as the sequence (Q9BXC0 whole entry, species assumed) above

HM74 [4] = target: T3, HM74 (Homo sapiens, UniProt P49019); assay: 35S-GTPγS binding assay, HM74-expressing CHO membranes; format: biochemical
T3 construct: expressed in transfected cells; host or cells: CHO cells, membranes
T3 sequence (P49019 whole entry): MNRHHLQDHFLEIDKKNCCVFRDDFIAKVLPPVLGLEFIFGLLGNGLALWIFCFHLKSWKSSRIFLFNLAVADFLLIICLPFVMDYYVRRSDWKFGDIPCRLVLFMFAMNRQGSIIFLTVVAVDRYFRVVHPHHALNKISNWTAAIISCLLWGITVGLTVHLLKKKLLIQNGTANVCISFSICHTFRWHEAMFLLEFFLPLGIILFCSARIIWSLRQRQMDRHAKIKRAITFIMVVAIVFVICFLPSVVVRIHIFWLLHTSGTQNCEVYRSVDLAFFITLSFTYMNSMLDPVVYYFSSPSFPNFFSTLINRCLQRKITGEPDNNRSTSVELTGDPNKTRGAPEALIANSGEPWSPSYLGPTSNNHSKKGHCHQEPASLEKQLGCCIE

GPR81 [5] = target: T1, GPR81; assay: 35S-GTPγS binding assay, membranes of CHO cells expressing human GPR81; format: biochemical; parameters: expressed in transfected cells; host or cells: CHO-K1 (transient, pCIneo), membranes
Target sequence in this assay (Q9BXC0 whole entry): as the sequence (Q9BXC0 whole entry, species assumed) above

HM74 [6] = assay: cAMP inhibition-linked β-gal assay, HM74 expressing cells; format: cell-based
[7] = 35S-GTPγS binding assay, control membranes; format: biochemical, Chinese hamster; settings: negative control
GPR81 [8] = target: T1, GPR81; settings: Tunaru et al., Nat. Med. 2003; cited from earlier work
Target sequence in this assay (Q9BXC0 whole entry, species assumed): as above

rat GPR81S = assay: GTPγS binding assay, rat GPR81S; format: biochemical; settings: FIG. 19
Description: (§1) The longer polypeptide sequence was termed rat GP[…]; the shorter polypeptide sequence was termed rat GP[…]. […] The forward primer, 5' [NT] ID NO:7), and the reverse primer, [NT] […] The forward primer, [NT] ID NO:9), and reverse primer, [NT]

mouse GPR81L = target: T4, mouse GPR81L (Mus musculus, UniProt Q8C131); assay: GTPγS binding assay, mouse GPR81L; format: biochemical; settings: FIG. 19
T4 construct: expressed in transfected cells; host or cells: CHO-K1 (transient, pCIneo), membranes
T4 sequence (Q8C131 with tags, fused parts or gaps): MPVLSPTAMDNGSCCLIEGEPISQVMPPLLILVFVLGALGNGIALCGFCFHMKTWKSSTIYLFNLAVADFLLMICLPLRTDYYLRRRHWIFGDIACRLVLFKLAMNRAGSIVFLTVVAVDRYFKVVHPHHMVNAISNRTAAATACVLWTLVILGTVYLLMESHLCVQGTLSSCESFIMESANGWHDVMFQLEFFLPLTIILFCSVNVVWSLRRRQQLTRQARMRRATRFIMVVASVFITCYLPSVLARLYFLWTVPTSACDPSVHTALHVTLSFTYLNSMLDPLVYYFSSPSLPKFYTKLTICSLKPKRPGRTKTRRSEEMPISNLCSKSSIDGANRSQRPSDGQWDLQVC
Description: (§2) The longer polypeptide sequence was termed mouse GP[…]; the shorter polypeptide sequence was termed mouse GP[…].

dog GPR81 = assay: GTPγS binding assay, dog GPR81; format: biochemical; settings: FIG. 20
monkey GPR81 = assay: GTPγS binding assay, monkey GPR81; format: biochemical; settings: FIG. 20
Description: The forward primer, 5′ ACTAGAGAATTCGCCACCATGTACAACGGGTCGTGCTGCCGCAT 3′ (SEQ ID NO:15), and the reverse primer, 5′ ATGATAGCGGCCGCTCAGTGCCACTCAACAGTGTGGGGATC 3′ (SEQ ID NO:16), were designed based on the identified monkey GPR81 coding sequence and were used to amplify the monkey GPR81 coding region using monkey genomic DNA as template.

rat GPR81L = assay: GTPγS binding assay, rat GPR81L; format: biochemical; settings: FIG. 19
Description: as §1

porcine GPR81 = assay: GTPγS binding assay, porcine GPR81; format: biochemical; settings: FIG. 20
mouse GPR81S = target: T5, mouse GPR81S (Mus musculus, UniProt Q8C131); assay: GTPγS binding assay, mouse GPR81S; format: biochemical; settings: FIG. 19
T5 construct: expressed in transfected cells; host or cells: CHO-K1 (transient, pCIneo), membranes
T5 sequence (Q8C131 1-343): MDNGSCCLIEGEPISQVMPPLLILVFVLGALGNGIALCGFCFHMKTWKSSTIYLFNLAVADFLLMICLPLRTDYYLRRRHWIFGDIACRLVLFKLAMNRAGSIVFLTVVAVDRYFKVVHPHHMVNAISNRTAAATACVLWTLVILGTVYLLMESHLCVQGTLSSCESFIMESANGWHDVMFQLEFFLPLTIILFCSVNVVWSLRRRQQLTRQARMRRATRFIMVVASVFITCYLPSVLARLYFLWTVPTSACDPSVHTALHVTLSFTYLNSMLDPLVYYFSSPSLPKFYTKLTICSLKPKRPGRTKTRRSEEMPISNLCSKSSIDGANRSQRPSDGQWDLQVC
Description: as §2

bovine GPR81 = assay: GTPγS binding assay, bovine GPR81; format: biochemical; settings: FIG. 20
Description: TAA GTC ACC AAT CC 3′ (SEQ ID NO:12), were designed based on the identified bovine GPR81 coding sequence and were used to amplify the bovine GPR81 coding region using bovine genomic DNA as template.

## CC(Cl)(Cl)C(=O)[O-].[Na+] [2,2-dichloropropionic acid, sodium salt]
GPR81 [1]
  GPR81 agonist activity: no

## CC(Cl)C(=O)Cl (centres unmarked) [2-chloropropinoyl chloride]
GPR81 [1]
  GPR81 agonist activity: showed GPR81-agonist activity and yes

## CC(Cl)C(=O)[O-].[Na+] (centres unmarked) [2-chloropropionic acid, sodium salt]
GPR81 [1]; listed as 2-chloropropinoate, sodium salt
  GPR81 agonist activity: showed GPR81-agonist activity
GPR81 [1]; sodium salt
  GPR81 agonist activity: yes

## C[C@@H](O)C(=O)O [D-lactate]
GPR81 [1]
  efficacy as GPR81 agonist (comparison): less efficacious
  GPR81 agonist activity: demonstrated significant GPR81 agonist activity and yes

## N[C@@H](CCO)C(=O)O [L-homoserine]
GPR81 [1]
  GPR81 agonist activity: none of glucose, L-homoserine, or any L-amino acids tested activated GPR81 and no

## C[C@H](O)C(=O)O [L-lactate]
HM74A
  activation of HM74A-expressing membranes (35S-GTPγS binding): did not activate
[2]
  inhibition of forskolin-induced β-gal expression in control cells not expressing a GPCR: did not inhibit
[2]; listed as lactate
  inhibition of forskolin-induced β-gal expression in control cells not expressing a GPCR: not in cells not expressing GPR81
GPR81 [3]
  inhibition of forskolin-induced β-gal expression in GPR81-expressing cells: inhibits forskolin-induced β-galactosidase expression
GPR81 [3]; read-out: EC50, inhibition of forskolin-induced β-gal expression in GPR81-expressing cells
  EC50: ~3 mM
HM74 [4]
  activation of HM74-expressing membranes (35S-GTPγS binding): did not activate
GPR81 [5]; CHO membranes, read-out: EC50, activation of human GPR81 (35S-GTPγS binding)
  EC50: ~5 mM and 5 mM
GPR81 [5]; at 1 mM concentration
  receptor activation of GPR81: capable of stimulating detectable receptor activation
HM74 [6]
  inhibition of forskolin-induced β-gal expression in HM74 expressing cells: did not inhibit
[7]
  35S-GTPγS binding stimulation in control cells/membranes not expressing GPR81 or any GPCR: did not activate

## CC(=O)O [acetate]
GPR81 [1]
  GPR81 agonist activity: neither acetate, pyruvate, formiate, nor glyoxylate activated GPR81 and no

## O=C(O)C(F)(F)Cl [chlorodifluoroacetate (CDFA), chlorodifluoroacetate]
GPR81 [1]
  GPR81 agonist activity: yes
GPR81 [1]; listed as chlorodifluoroacetate
  GPR81 agonist activity: showed GPR81-agonist activity

## O=C(O)C(F)F [difluoroacetate]
GPR81 [1]
  GPR81 agonist activity: showed GPR81-agonist activity

## O=CO [formiate]
GPR81 [1]
  GPR81 agonist activity: neither acetate, pyruvate, formiate, nor glyoxylate activated GPR81 and no

## O=C([O-])CO.[Na+] [glycolic acid, sodium salt]
GPR81 [1]; listed as glycolate, sodium salt
  GPR81 agonist activity: demonstrated significant GPR81 agonist activity
GPR81 [1]; sodium salt
  GPR81 agonist activity: yes

## O=CC(=O)O [glyoxylate]
GPR81 [1]
  GPR81 agonist activity: neither acetate, pyruvate, formiate, nor glyoxylate activated GPR81 and no

## O=C(O)c1cccnc1 [nicotinic acid]
[2]
  inhibition of forskolin-induced β-gal expression in control cells not expressing a GPCR: failed to inhibit
GPR81 [3]
  inhibition of forskolin-induced β-gal expression in GPR81-expressing cells: failed to inhibit; also recorded: not in cells expressing GPR81
GPR81 [8]
  activation of GPR81: does not activate
HM74 [6]
  inhibition of forskolin-induced β-gal expression in HM74 expressing cells: inhibited forskolin-induced β-gal expression

## CC(C)(O)C(=O)[O-].[Na+] [sodium hydroxyisobutyrate]
GPR81 [1]
  GPR81 agonist activity: yes
GPR81 [1]; listed as hydroxy-iso-butyrate
  GPR81 agonist activity: demonstrated significant GPR81 agonist activity

## O=C(O)C(Br)(Br)Br [tribromoacetate (TEA), tribromoacetate]
GPR81 [1]
  GPR81 agonist activity: no

## O=C(O)C(F)(F)F [trifluoroacetate (TFA), trifluoroacetate]
GPR81 [1]
  GPR81 agonist activity: yes
GPR81 [1]; listed as trifluoroacetate
  GPR81 agonist activity: showed GPR81-agonist activity

## CCC(O)C(=O)O (stereo not drawn) [α-hydroxybutyrate]
GPR81 [1]
  GPR81 agonist activity: yes

## CC(O)CC(=O)O (stereo not drawn) [β-hydroxybutyrate]
Rat GPR81S
  activation of rat GPR81S: did not activate
Mouse GPR81L
  activation of mouse GPR81L: did not activate
Dog GPR81
  activation of dog GPR81: did not activate
Monkey GPR81
  activation of monkey GPR81: did not activate
Rat GPR81L
  activation of rat GPR81L: did not activate
GPR81 [5]
  activation of human GPR81 (GTPγS binding): did not activate
Porcine GPR81
  activation of porcine GPR81: did not activate
Mouse GPR81S
  activation of mouse GPR81S: did not activate
Bovine GPR81
  activation of bovine GPR81: did not activate
GPR81 [1]
  GPR81 agonist activity: no

## NCCCC(=O)O [γ-aminobutyric acid (GABA), γ-aminobutyric acid]
GPR81 [1]
  stimulation of 35S-GTPγS binding in GPR81-expressing cells / cell membranes: did not stimulate
  GPR81 agonist activity: no
GPR81 [1]; listed as gamma-aminobutyric acid (GABA)
  GPR81 agonist activity: did not activate it

## O=C(O)CCCO [γ-hydroxybutyric acid (GHB), γ-hydroxybutyric acid]
GPR81 [1]; at 1 mM and 5 mM
  stimulation of 35S-GTPγS binding in GPR81-expressing cells: significantly stimulated
GPR81 [1]
  stimulation of 35S-GTPγS binding in GPR81-expressing cells / cell membranes: stimulates
  GPR81 agonist activity: yes
GPR81 [1]; listed as GHB
  GPR81 agonist activity: activated GPR81
[7]
  35S-GTPγS binding stimulation in control cells/membranes not expressing GPR81 or any GPCR: not in the control cells; also recorded: not in cells not expressing GPR81
